Test results published in ChEMBL document CHEMBL1143050, “QSAR study on permeability of hydrophobic compounds with artificial membranes” (Bioorg Med Chem, 2007).
Several values for one entry are separate records, joined by “and”; a condition that tells them apart may be missing. Equal values may be shown once.

Tests used:
[1] = Permeability coefficient through artificial membrane in presence of unstirred water layer by PAMPA
[2] = Permeability coefficient through artificial membrane in presence of stirred water layer
[3] = Partition coefficient, log P of the compound; details: octanol/water
[4] = Intrinsic artificial membrane permeability coefficient, log P0 of the compound; format: ADME
Caco-2 [5] = experiment: Permeability from apical to basolateral side of the Caco-2 cell membrane; format: ADME, cell-based; details: human
Caco-2 [6] = experiment: Permeability from basolateral to apical side of the Caco-2 cell membrane; format: ADME, cell-based; details: human
[7] = Permeability coefficient through artificial membrane in presence of stirred water layer at 200 rpm stirring speed; format: ADME
[8] = Permeability coefficient through artificial membrane in presence of stirred water layer at 100 rpm stirring speed; format: ADME
[9] = Permeability coefficient through artificial membrane in presence of stirred water layer at 250 rpm stirring speed; format: ADME

SMILES | LogP app [1] | Papp [1] | Papp ([2]; PAMPA) | LogP app ([2]; artificial membrane) | logP [3] | logPm [4] | LogP app (Caco-2 [5]) | LogP app (Caco-2 [6]) | LogP app [7] | LogP app [8] | LogP app ([2]; PAMPA) | LogP app [9]
C=CCc1ccccc1OCC(O)CNC(C)C (configuration not stated) [ALPRENOLOL] | -4.7 | 11.5 ×10⁻⁶ cm/s | 61.4 ×10⁻⁶ cm/s | -4.21 | 2.65 | -1.02 | – | – | – | – | – | –
COc1ccc([C@@H]2Sc3ccccc3N(CCN(C)C)C(=O)[C@@H]2OC(C)=O)cc1 [DILTIAZEM] | -4.64 | 0.34 ×10⁻⁶ cm/s | – | – | 2.8 | -1.85 | – | – | – | – | – | –
CCOP(=S)(OCC)Oc1cc(C)nc(C(C)C)n1 [DIMPYLATE] | -5.28 | 5.21 ×10⁻⁶ cm/s | 31.1 ×10⁻⁶ cm/s | -4.51 | 3.3 | – | -4.32 | -4.42 | – | – | – | –
c1ccc(Nc2ccccc2)cc1 [DIPHENYLAMINE] | -5.51 | 3.1 ×10⁻⁶ cm/s | 15 ×10⁻⁶ cm/s | -4.82 | – | – | -4.4 | -4.35 | – | – | – | –
CC(C)Cc1ccc(C(C)C(=O)O)cc1 (configuration not stated) [IBUPROFEN] | -4.67 and -4.72 | – | – | – | – | -1.15 | – | – | – | – | – | –
CC(C)OP(=O)(OC(C)C)SCc1ccccc1 [IPROBENFOS] | -4.93 | 11.7 ×10⁻⁶ cm/s | 362 ×10⁻⁶ cm/s | -3.44 | 3.21 | – | -4.28 | -4.35 | – | – | – | –
CC(C(=O)O)c1cccc(C(=O)c2ccccc2)c1 (configuration not stated) [KETOPROFEN] | – | – | – | – | – | -2.43 | – | – | -5.49 | -5.55 | – | –
COCCc1ccc(OCC(O)CNC(C)C)cc1 (configuration not stated) [METOPROLOL] | -5.1 and -4.95 | – | 14.3 ×10⁻⁶ cm/s | -4.84 | – | -1.75 | – | – | – | – | – | –
CN1C(C(=O)Nc2ccccn2)=C(O)c2ccccc2S1(=O)=O [PIROXICAM] | – | – | 19.2 ×10⁻⁶ cm/s | -4.72 | 1.98 | -2.08 | – | – | – | – | – | –
O=C(O)c1ccccc1O [SALICYLIC ACID] | – | – | 4.9 ×10⁻⁶ cm/s | – | – | -3.46 | – | – | – | – | -5.31 | –
C[C@]12CC[C@H]3[C@@H](CCC4=CC(=O)CC[C@@]43C)[C@@H]1CC[C@@H]2O [TESTOSTERONE] | -4.95 and -4.77 | – | 136 ×10⁻⁶ cm/s | -3.87 | – | – | – | – | -4.08 | -4.29 | – | -3.87
